Experimental data: patent US20250325535A1, “IDENTIFICATION OF NOVEL SMALL-MOLECULE INHIBITORS OF SARS-CoV-2 BY CHEMICAL GENETICS” (The University of Hong Kong, priority 2024, published 2025)
pIC50: −log10 of the molar value.

Assays:
SARS-CoV = format: cell-based
[1] = tested on: 44 selected host targets including 24 GPCRs, 8 ion channels, 7 enzymes, 3 monoamine transporters, and 2 nuclear hormone receptors; details: 10 μM
[2] = format: in vitro ADME, CD-1 mouse or human; details: microsomes
Description: Mouse and Human Liver Microsomes are respectively provided by RILD and coming. They are collected from CD-1 mouse or human and prepared in 100 mM potassium phosphate buffer. […] Aliquots are sampled at 0, 5, 15, 30, 45, and 60 min for LC-MS/MS analysis.

in vitro = format: cell-based; details: African green monkey
Description: (§1) FIG. 9. MTT cytotoxicity assays of SMART™ finalized hits compounds on VeroE6 cells. VeroE6 cells are treated with compounds of interest diluted from 100 μM to 0.78 μM in a 2-fold interval and incubate for 72 hours.
(§2) Briefly, cells are seeded onto a 96-well plate at a density of 20,000 cells per well one day before treatment. On the following day, compounds of interest are added to the cells in gradient concentrations and incubated at 37° C. with 5% CO2 for either 48 or 96 hours. After medium removal, 100 μL of 1×MTT solution in plain DMEM is added to the cells and incubated at 37° C. with 5% CO2 for 3-4 hours. Then, MTT lysis buffer (10% SDS/10 mM HCl) is added to the cells and incubated at room temperature for 3-4 hours. Cell viability is measured in absorbance (OD595) using a plate reader (Glomax, Promega).

VeroE6 cells = experiment: in vitro; format: cell-based; details: African green monkey, 72 h, 100 μM
Description: as §1, §2

HCoV-229E = format: cell-based
[3] = tested on: recombinant WT SARS-CoV-2; experiment: microbe, parasite or virus in culture; format: cell-based; details: for pIC50: Severe acute respiratory syndrome coronavirus 2, recombinant WT virus, read-out: IC50 (plaque formation assay)
[4] = Balb/c mouse, single intraperitoneal 5 mg/kg
Caco-2 cells = format: in vitro ADME
Description: Caco-2 cells are seeded onto 0.4 μm pore polycarbonate membranes (PC) in 96-well Corning Insert plates at a density of 3.5×10^4 cells/cm2.HBSS with 10.0 mM HEPES at pH 7.40±0.05 as the transport buffer. The compound is subjected to bidirectional testing in triplicate at 2.00 μM. The plate is incubated in a CO2 incubator with 5% CO2 at 37.0° C. and saturated humidity for two hours without shaking. All samples are centrifuged at 3220 g for 10 minutes after being combined with acetonitrile containing internal standard. Using the peak area ratio of the analyte/internal standard, LC-MS/MS techniques are used to quantify the concentrations of the compound in the beginning solution, donor solution, and recipient solution. Following transportation, lucifer yellow rejection assay is applied to determine the Caco-2 cell monolayer integrity.
For data analysis, Permeability (Papp), efflux ratio and Percent recovery are calculated using the following equations: […]

MERS-CoV = format: cell-based
Wild Type SARS-CoV-2 = experiment: Golden Syrian hamster experiment; format: in vivo

| SMILES | reduction of SARS-CoV viral load (SARS-CoV) [log 10] | off-target effects on host proteins [1] | metabolic stability [2] | CC50 at 72 h (in vitro) [nM] | cell viability in MTT assay (VeroE6 cells) | viral RNA reduction in supernatant (HCoV-229E) | pIC50 [3] | Cmax [4] [µM] | permeability (Caco-2 cells) | reduction in normalized expression of N gene in cell lysate (MERS-CoV) [log10] | viral yield reduction in lung and nasal turbinate vs control group (Wild Type SARS-CoV-2; 1 mg/kg IP at 12-hour intervals, day 3) [log 10] | protection (viral yield reduction) in animal lungs (Wild Type SARS-CoV-2; Nirmatrelvir 200 mg/kg IP, Pelitinib oral 10 mg/kg, 12-hour intervals) [log 10] | inhibition of virus replication ([3]; WT virus) | protection (viral yield reduction) in animal lungs (Wild Type SARS-CoV-2; in vivo) |
| --- | --- | --- | --- | --- | --- | --- | --- | --- | --- | --- | --- | --- | --- | --- |
| Cc1ccc(C2C3=C(CC(c4ccccc4)CC3=O)NC3=C2C(=O)c2ccccc23)cc1 (stereo not shown) [Compound 172, 10-(4-methylphenyl)-7-phenyl-6,7,8,10-tetrahydro-5H-indeno[1,2-b]quinoline-9,11-dione] | 1 | no significant off-target effects | moderate | > 100000 | over 90% | more than 3 log 10 | 5.41 | 6.89 | moderate | > 5 | 1 | – | – | – |
| CC(C)(C)[C@H](NC(=O)C(F)(F)F)C(=O)N1C[C@H]2[C@@H]([C@H]1C(=O)N[C@H](C#N)C[C@@H]1CCNC1=O)C2(C)C [Nirmatrelvir] | – | – | – | – | – | – | 7.74 | – | – | – | – | > 4 | – | – |
| CCOc1cc2ncc(C#N)c(Nc3ccc(F)c(Cl)c3)c2cc1NC(=O)/C=C/CN(C)C [Pelitinib] | – | – | – | – | – | – | 5.79 | – | – | – | – | – | dose-dependent inhibition of WT virus replication | marginal |
